Test results published in patent US6545053B1, “Tricyclic compounds and drug compositions containing same” (Asahi Kasei Kogyo Kabushiki Kaisha, priority 1996, dated 2003).
Where a name gives a salt, the structure may show the parent alone. Read-outs that look alike come from different tables or passages of the source.

What was measured:
human β3 = target: T1, human β3 (Homo sapiens, UniProt P13945); experiment: Human β3-agonist activity (cAMP in CHO cells transfected with human β3 gene); type: cell-based; settings: for Emax: CHO, read-out: Intrinsic activity (%)
T1 construct: And then full length of human β3 gene was cloned using this fragment as a probe; expressed in transfected cells; host or cells: CHO cells (Chinese hamster ovary), pcDNA3 vector
T1 sequence (P13945 whole entry, the tested form may be a part): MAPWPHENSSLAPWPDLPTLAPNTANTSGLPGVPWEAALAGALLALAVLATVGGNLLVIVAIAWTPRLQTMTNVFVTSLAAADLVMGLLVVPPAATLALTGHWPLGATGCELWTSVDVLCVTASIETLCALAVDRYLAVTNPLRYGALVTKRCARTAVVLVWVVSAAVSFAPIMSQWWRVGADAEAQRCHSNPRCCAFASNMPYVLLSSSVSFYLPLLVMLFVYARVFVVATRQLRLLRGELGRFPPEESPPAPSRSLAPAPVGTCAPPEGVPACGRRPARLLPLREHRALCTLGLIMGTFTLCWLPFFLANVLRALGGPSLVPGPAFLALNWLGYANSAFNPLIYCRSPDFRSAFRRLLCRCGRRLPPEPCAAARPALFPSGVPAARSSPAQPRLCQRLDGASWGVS
Protocol: Human β3-agonist Activity
Human β3-agonist activity was examined using CHO cells (chinese hamster ovarian cells) to which pcDNA3 (in vitrogen) cells inserted human β3 gene was transfected. Human β3 fragment was obtained by PCR using human fat tissue cDNA (supplied from Clontech) with a β3 primer [Krief et al, J. Clin. Invest.
The cells were cultured in a HAM F-12 medium containing 10% of fetal bovine serum, 400 μg/ml of Geneticin (Gibco BRL). 100 U/ml penicillin and 100 μg/ml streptomycin. 5×10^5 cells were placed on a 6-well plate and cultured for 24 hours, after which the medium was changed to a HAM F-12 medium without serum and was kept for 2 hours. Each test compound was first dissolved in DMSO, and then diluted with a HAM F-12 medium containing 1 mM isobutylmethyl xanthine and 1 mM ascorbic acid. A 10-fold dilution in the range of 10^−5 to 10^−12 M was added into the cell.
After culturing for 30 minutes, culture medium was withdrawn, 0.5 ml of 1 N NaOH was added and was kept for 20 minutes. And then 0.5 ml of 1 N acetic acid was added with subsequent agitation and centrifugation. Finally the concentration of cAMP were analyzed using cAMP EIA KIT (Cayman). […] Isoprotelenol was purchased from Research Biochimicals International.

canine adipocytes = experiment: Lipolytic activity in canine fatty cell (glycerol release); type: cell-based, dogs; settings: Canis lupus familiaris, Adipocyte; for EC50: 1 h, glycerol release, canine adipocytes, read-out: ED50 (the source's name); for Emax: read-out: Intrinsic activity (%)
Protocol: Lipolytic Activity in Canine Fatty Cell
Adipose tissues in the omentum were collected from dogs and minced and washed. Krebs-Ringer buffer solution containing 1 mg/ml Collagenase (Sigma) and 1% of bovine serum albumin was added in an amount of 3 ml per one gram of the tissue. These cells were then incubated at 37° C. for 30 minutes with shaking and then undigested tissues were removed with a nylon filter. The resulting adipocytes were washed four times with Krebs-Ringer buffer, and then the concentration of cells was diluted to 2×10^5/ml with Krebs-Ringer buffer solution containing 4% of bovine serum albumin. These cells were transferred to Eppendorf tubes each in an amount of 300 μl.
Each 300 μl of a culture medium containing the test compounds were added to these tubes and was held at 37° C. for 1 hour whith shaking. Stimulation was stoped by cooling with ice. After centrifugation, the adipocytes were taken off with an aspirator, whereupon the glycerol was determined using F-KIT GLTCEROL (Behringer-Manheim).

male ddy mice [1] = experiment: Toxicity test in mice; type: in vivo; settings: dose of 100 mg/kg; 8 mice
Protocol: The compounds of Examples 7 and 31 were administered to 6 week age male ddy mice (supplied from the firm Nippon Charles Liver) at a dose of 100 mg/kg.

male ddy mice [2] = experiment: Lipolytic effect in mice (serum free fatty acid); type: in vivo
Protocol: Blood Sugar Decreasing Effect and Lipolytic Effect Male ddy mice (supplied from the firm Nippon Charles Liver) of 6 weeks age were subcutaneously administered with glucose in a dose of 2 g/kg. The animals were also treated with either one of test compounds via oral or intraperitoneal administration in a dose of 0.1 ml per 10 grams of body weight. After one hour, blood sample was taken from abdominal aorta, from which serum was separated and served as the sample. Lipolytic Effect Amount of free fatty acid in the samples was determined using NEFA HA TEST WAKO (of the firm Wako Pure Chemical). […] Therefore, it was shown that they are useful as medicament for preventive and therapeutic treatment of hyperlipemia and for therapeutic treatment of obesity.

male ddy mice [3] = experiment: Blood sugar decreasing effect in glucose-loaded mice; type: in vivo; settings: glucose 2 g/kg s.c., after one hour
Protocol: Blood Sugar Decreasing Effect and Lipolytic Effect Male ddy mice (supplied from the firm Nippon Charles Liver) of 6 weeks age were subcutaneously administered with glucose in a dose of 2 g/kg. The animals were also treated with either one of test compounds via oral or intraperitoneal administration in a dose of 0.1 ml per 10 grams of body weight. After one hour, blood sample was taken from abdominal aorta, from which serum was separated and served as the sample. Blood Sugar Decreasing Effect The samples prepared as above were analyzed for the serum glucose concentration by Auto analyzer (SUPER Z of the firm M. C. Medical). For the analyzer kit, Glucose II HA TEST WAKO (of the firm Wako Pure Chemical) was used. % decrease in blood sugar=[(A−B)/(A−C)]×100 in which A represents the glucose concentration upon being loaded with glucose, B represents the glucose concentration after administration of the compound and C is the usual level of the glucose concentration. […] Therefore, it was proven that the compound according to the present invention is effective as a medicament for therapeutic and preventive treatment of diabetes.

[4] = cAMP, CHO cells with human β3, read-out: ED50 (the source's name)

| EC50 (human β3; [4]) [nM] | SMILES | EC50 (human β3) [nM] | Emax (human β3) [%] | EC50 (canine adipocytes) [nM] | Emax (canine adipocytes) [%] | fatal cases (male ddy mice [1]) | increase of free fatty acid (male ddy mice [2]; oral administration of 100 mg/kg) [%] | % decrease in blood sugar (male ddy mice [3]; oral administration) [%] | increase of free fatty acid (male ddy mice [2]; oral administration of 30 mg/kg) [%] | % decrease in blood sugar (male ddy mice [3]; intraperitoneal administration) [%] | increase of free fatty acid (male ddy mice [2]; intraperitoneal administration of 10 mg/kg) [%] |
| --- | --- | --- | --- | --- | --- | --- | --- | --- | --- | --- | --- |
| – | CS(=O)(=O)Nc1cccc(C(O)CNCCOc2ccc3c(c2)[nH]c2ccccc23)c1.Cl (racemic) [Example 7, (±)-N-[3-[2-[2-(9H-Carbazol-2-yloxy)ethylamino]-1-hydroxyethyl]phenyl]methanesulfonamide Hydrochloride] | 18 | 95 | 1200 | 90 | no fatal case | 47.7 | – | – | – | – |
| – | CS(=O)(=O)Nc1cc(C(O)CNCCOc2ccc3c(c2)[nH]c2ccccc23)ccc1O.Cl (racemic) [Example 2, (±)-N-[5-[2-[2-(9H-Carbazol-2-yloxy)ethylamino]-1-hydroxyethyl]-2-hydroxyphenyl]methanesulfonamide Hydrochloride] | 0.18 | 120 | 56 | 82 | – | – | – | – | 77.1 | 67.2 |
| – | COC(CNCCOc1ccc2c(c1)[nH]c1ccccc12)c1ccc(N)c(NS(C)(=O)=O)c1 (racemic) [Example 92, (±)-N-[5-[2-[2-(9H-Carbazol-2-yloxy)ethylamino]-1-methoxyethyl]-2-aminophenyl]methanesulfonamide Hydrochloride] | 280 | 81 | 1900 | 126 | – | – | – | – | – | – |
| – | CN(C)S(=O)(=O)Nc1cc(C(O)CNCCOc2ccc3c(c2)[nH]c2ccccc23)ccc1O (racemic) [Example 25, (±)-N′-[5-[2-[2-(9H-Carbazol-2-yloxy)ethylamino]-1-hydroxyethyl]-2-hydroxyphenyl]-N,N-dimethylsulfamide Hydrochloride] | 2.1 | 95 | 510 | 70 | – | – | – | – | – | – |
| – | CS(=O)(=O)Nc1cc(C(O)CNCCOc2ccc3c(c2)oc2ccccc23)ccc1O (racemic) [Example 4, (±)-N-[5-[2-[2-(Dibenzofuran-3-yloxy)ethylamino]-1-hydroxyethyl]-2-hydroxyphenyl]methanesulfonamide Hydrochloride] | 0.52 | 80 | 0.7 | 88 | – | – | – | – | – | – |
| – | CC(C)S(=O)(=O)Nc1cc(C(O)CNCCOc2ccc3c(c2)[nH]c2ccccc23)ccc1O (racemic) [Example 54, (±)-N-[5-[2-[2-(9H-Carbazol-2-yloxy)ethylamino]-1-hydroxyethyl]-2-hydroxyphenyl]-2-propanesulfonamide Hydrochloride] | 8.4 | 109 | 25 | 118 | – | – | – | – | – | – |
| – | CS(=O)(=O)Nc1cc([C@@H](O)CNCCOc2ccc3c(c2)oc2ccccc23)ccc1O [Example 69, (R)-N-[5-[2-[2-(Dibenzofuran-3-yloxy)ethylamino]-1-hydroxyethyl]-2-hydroxyphenyl]methanesulfonamide Hydrochloride] | 0.016 | 94 | 0.65 | 107 | – | – | – | – | – | – |
| 180 | CC(=O)Nc1ccc2c(c1)Cc1cc(OCCNC[C@H](O)c3cccc(NS(C)(=O)=O)c3)ccc1-2 [Example 71, (R)-N-13-[2-[2-(9H-7-Acetylaminofluoren-2-yloxy)ethylamino]-1-hydroxyethyl]phenyl]methanesulfonamide Hydrochloride] | – | 97 | 110 | 88 | – | – | – | – | – | – |
| – | OCc1cc(C(O)CNCCOc2ccc3c(c2)[nH]c2ccccc23)ccc1O (racemic) [Example 67, (±)-2-[N-[2-(9H-Carbazol-2-yloxy)ethyl]amino]-1-[4-hydroxy-3-(hydroxymethyl)phenyl]ethanol Hydrochloride] | 28 | 109 | 54 | 94 | – | – | – | – | – | – |
| 0.94 | CC(=O)Nc1ccc2c(c1)Cc1cc(OCCNCC(O)c3ccc(O)c(NS(C)(=O)=O)c3)ccc1-2 (racemic) [Example 50, (±)-N-[5-[2-[2-(9H-7-Acetylaminofluoren-2-yloxy)ethylamino]-1-hydroxyethyl]-2-hydroxyphenyl]methanesulfonamide Hydrochloride] | – | 85 | 0.19 | 112 | – | – | – | – | – | – |
| – | CS(=O)(=O)Nc1cc([C@@H](O)CNCCOc2ccc3c(c2)sc2ccccc23)ccc1O [Example 72, (R)-N-[5-[2-[2-(Dibenzothiophen-3-yloxy)ethylamino]-1-hydroxyethyl]-2-hydroxyphenyl]methanesulfonamide Hydrochloride] | – | 80 | 0.54 | 96 | – | – | – | – | – | – |

| SMILES | EC50 (human β3; [4]) [nM] | EC50 (human β3) [nM] | Emax (human β3) [%] | EC50 (canine adipocytes) [nM] | Emax (canine adipocytes) [%] | fatal cases (male ddy mice [1]) | increase of free fatty acid (male ddy mice [2]; oral administration of 100 mg/kg) [%] | % decrease in blood sugar (male ddy mice [3]; oral administration) [%] | increase of free fatty acid (male ddy mice [2]; oral administration of 30 mg/kg) [%] | % decrease in blood sugar (male ddy mice [3]; intraperitoneal administration) [%] | increase of free fatty acid (male ddy mice [2]; intraperitoneal administration of 10 mg/kg) [%] |
| --- | --- | --- | --- | --- | --- | --- | --- | --- | --- | --- | --- |
| OC(CNCCOc1ccc2c(c1)[nH]c1ccccc12)c1ccccc1 (racemic) [Example 31, (±)-2-N-[2-(9H-Carbazol-2-yloxy)ethyl]amino]-1-phenyethanol Hydrochloride] | 2200 | – | 100 | 7700 | 103 | no fatal case | – | 34.5 | 32.4 | – | – |
